Reference: US11505536B2, “Dihydroorotate dehydrogenase inhibitors” (Janssen Biotech, Inc., priority 2019, dated 2022)

Columns and labels:
[1] = biological target: human DHODH (Homo sapiens (Human), UniProt Q02127); assay: DHODH Enzymatic Assay; format: biochemical; conditions: purified human DHODH, DCIP absorbance, end-point mode; read-out: hDHODH IC50
Method in brief: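 Purified human DHODH in […] HEPES pH 7.5, 150 mM NaCl, 0.5 mM EDTA, 0.1% Triton X-100; reaction started with substrate mix of 20 mM DHO, 5 mM CoQ6, 1 mM DCIP. End-point read as DCIP reduction (absorbance ~600 nm) after brequinar quench.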

[2] = system: MOLM-13 cells (human acute myeloid leukemia cells); assay: MOLM-13 Cellular Assay; format: cell-based; conditions: 72 hours exposure, cell viability by CellTiter-Glo
Method in brief: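 MOLM-13 AML cells, seeded at 5,000/well in RPMI 1640 with 10% FBS, were treated with compounds right after seeding for 72 h at 37 °C, 5% CO2. Viability read by CellTiter-Glo luminescence.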

Sequence of human DHODH (Q02127 whole entry): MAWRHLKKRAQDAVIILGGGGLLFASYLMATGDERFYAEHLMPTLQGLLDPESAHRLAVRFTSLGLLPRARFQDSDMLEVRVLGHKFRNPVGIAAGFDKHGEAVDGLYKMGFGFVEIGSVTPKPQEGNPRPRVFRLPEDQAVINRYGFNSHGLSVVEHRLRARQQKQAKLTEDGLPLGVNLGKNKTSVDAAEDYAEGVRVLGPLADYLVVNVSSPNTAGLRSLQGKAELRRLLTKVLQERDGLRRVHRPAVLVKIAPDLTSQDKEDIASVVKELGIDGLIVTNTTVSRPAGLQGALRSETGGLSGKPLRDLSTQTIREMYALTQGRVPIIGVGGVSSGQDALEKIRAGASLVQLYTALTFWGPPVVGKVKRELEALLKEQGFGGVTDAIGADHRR

Structure (SMILES) | IC50 [1] [pM] | IC50 ([2]; Homo sapiens, MOLM-13, 72 h) [pM] | IC50 [2] [pM]
CCn1c(CO)nn(-c2nc3c(C(C)C)cn(-c4c(F)cccc4Cl)c(=O)c3cc2F)c1=O [Example 36, 6-(2-Chloro-6-fluorophenyl)-2-(4-ethyl-3-(hydroxymethyl)-5-oxo-4,5-dihydro-1H-1,2,4-triazol-1-yl)-3-fluoro-8-isopropyl-1,6-naphthyridin-5(6H)-one] | 356 | 400 | 
CCn1c(CO)nn(-c2nc3c([C@H](C)C(F)(F)F)cn(-c4ccccc4C)c(=O)c3cc2F)c1=O [Example 37, (S)-2-(4-Ethyl-3-(hydroxymethyl)-5-oxo-4,5-dihydro-1H-1,2,4-triazol-1-yl)-3-fluoro-6-(o-tolyl)-8-(1,1,1-trifluoropropan-2-yl)-1,6-naphthyridin-5(6H)-one] | 1880 | 3000 | 
CCn1c(CO)nn(-c2nc3c([C@@H](C)C(F)(F)F)cn(-c4ccccc4C)c(=O)c3cc2F)c1=O [Example 38, (R)-2-(4-Ethyl-3-(hydroxymethyl)-5-oxo-4,5-dihydro-1H-1,2,4-triazol-1-yl)-3-fluoro-6-(o-tolyl)-8-(1,1,1-trifluoropropan-2-yl)-1,6-naphthyridin-5(6H)-one] | 464 | 500 | 
CCn1c(CO)nn(-c2cc3c(C(C)C)cn(-c4scnc4C)c(=O)c3cc2F)c1=O [Example 39, 6-(4-Ethyl-3-(hydroxymethyl)-5-oxo-4,5-dihydro-1H-1,2,4-triazol-1-yl)-7-fluoro-4-isopropyl-2-(4-methylthiazol-5-yl)isoquinolin-1(2H)-one] | 13000 | 40000 | 
CCn1c(CO)nn(-c2nc3c(C(C)C)cn(-c4ccccc4C)c(=O)c3cc2F)c1=O [Example 40, 2-(4-Ethyl-3-(hydroxymethyl)-5-oxo-4,5-dihydro-1H-1,2,4-triazol-1-yl)-3-fluoro-8-isopropyl-6-(o-tolyl)-1,6-naphthyridin-5(6H)-one] | 802 | 800 | 
CCn1c(CO)nn(-c2cc3c(C(C)C)cn(-c4cc(C)ccc4F)c(=O)c3cc2F)c1=O [Example 41, 6-(4-Ethyl-3-(hydroxymethyl)-5-oxo-4,5-dihydro-1H-1,2,4-triazol-1-yl)-7-fluoro-2-(2-fluoro-5-methylphenyl)-4-isopropylisoquinolin-1(2H)-one] | 2980 | 2000 | 
C=C(C)c1cn(-c2cc(C)ccc2F)c(=O)c2cc(F)c(-n3nc(CO)n(CC)c3=O)cc12 [Example 42, 6-(4-Ethyl-3-(hydroxymethyl)-5-oxo-4,5-dihydro-1H-1,2,4-triazol-1-yl)-7-fluoro-2-(2-fluoro-5-methylphenyl)-4-(prop-1-en-2-yl)isoquinolin-1(2H)-one] | 1690 | 900 | 
C=C(C)c1cn(-c2cc(C)ccc2Cl)c(=O)c2cc(F)c(-n3nc(CO)n(CC)c3=O)cc12 [Example 43, 2-(2-Chloro-5-methylphenyl)-6-(4-ethyl-3-(hydroxymethyl)-5-oxo-4,5-dihydro-1H-1,2,4-triazol-1-yl)-7-fluoro-4-(prop-1-en-2-yl)isoquinolin-1(2H)-one] | 917 | 400 | 
C=C(C)c1cn(-c2cc(OC)ccc2F)c(=O)c2cc(F)c(-n3nc(CO)n(CC)c3=O)cc12 [Example 44, 6-(4-Ethyl-3-(hydroxymethyl)-5-oxo-4,5-dihydro-1H-1,2,4-triazol-1-yl)-7-fluoro-2-(2-fluoro-5-methoxyphenyl)-4-(prop-1-en-2-yl)isoquinolin-1(2H)-one] | 2220 | 700 | 
C=C(C)c1cn(-c2ccccc2Cl)c(=O)c2cc(F)c(-n3nc(CO)n(CC)c3=O)cc12 [Example 45, 2-(2-Chlorophenyl)-6-(4-ethyl-3-(hydroxymethyl)-5-oxo-4,5-dihydro-1H-1,2,4-triazol-1-yl)-7-fluoro-4-(prop-1-en-2-yl)isoquinolin-1(2H)-one] | 1410 | 300 | 
C=C(C)c1cn(-c2ccccc2C)c(=O)c2cc(F)c(-n3nc(CO)n(CC)c3=O)cc12 [Example 46, 6-(4-Ethyl-3-(hydroxymethyl)-5-oxo-4,5-dihydro-1H-1,2,4-triazol-1-yl)-7-fluoro-4-(prop-1-en-2-yl)-2-(o-tolyl)isoquinolin-1(2H)-one] | 746 | 300 | 
C=C(C)c1cn(-c2cc(OC)ccc2Cl)c(=O)c2cc(F)c(-n3nc(CO)n(CC)c3=O)cc12 [Example 47, 2-(2-Chloro-5-methoxyphenyl)-6-(4-ethyl-3-(hydroxymethyl)-5-oxo-4,5-dihydro-1H-1,2,4-triazol-1-yl)-7-fluoro-4-(prop-1-en-2-yl)isoquinolin-1(2H)-one] | 1210 | 700 | 
CCn1c(CO)nn(-c2cc3c(C(C)C)cn(-c4nc(OC)ccc4Cl)c(=O)c3cc2F)c1=O [Example 49, 2-(3-Chloro-6-methoxypyridin-2-yl)-6-(4-ethyl-3-(hydroxymethyl)-5-oxo-4,5-dihydro-1H-1,2,4-triazol-1-yl)-7-fluoro-4-isopropylisoquinolin-1(2H)-one] | 1090 | 2000 | 
CCn1c(CO)nn(-c2cc3c(C(C)C)cn(-c4c(C)ccnc4OC)c(=O)c3cc2F)c1=O [Example 50, 6-(4-Ethyl-3-(hydroxymethyl)-5-oxo-4,5-dihydro-1H-1,2,4-triazol-1-yl)-7-fluoro-4-isopropyl-2-(2-methoxy-4-methylpyridin-3-yl)isoquinolin-1(2H)-one] | 2750 | 7000 | 
C=C(C)c1cn(-c2c(F)ccc(OC)c2Cl)c(=O)c2cc(F)c(-n3nc(CO)n(CC)c3=O)cc12 [Example 51, 2-(2-Chloro-6-fluoro-3-methoxyphenyl)-6-(4-ethyl-3-(hydroxymethyl)-5-oxo-4,5-dihydro-1H-1,2,4-triazol-1-yl)-7-fluoro-4-(prop-1-en-2-yl)isoquinolin-1(2H)-one] | 267 | ≤ 200 | 100
C=C(C)c1cn(-c2c(F)cccc2Cl)c(=O)c2cc(F)c(-n3nc(CO)n(CC)c3=O)cc12 [Example 52, 2-(2-Chloro-6-fluorophenyl)-6-(4-ethyl-3-(hydroxymethyl)-5-oxo-4,5-dihydro-1H-1,2,4-triazol-1-yl)-7-fluoro-4-(prop-1-en-2-yl)isoquinolin-1(2H)-one] | 265 | ≤ 200 | 100
CCn1c(CO)nn(-c2cc3c(C(C)C)nn(-c4ccccc4C)c(=O)c3cc2F)c1=O [Example 53, 6-(4-Ethyl-3-(hydroxymethyl)-5-oxo-4,5-dihydro-1H-1,2,4-triazol-1-yl)-7-fluoro-4-isopropyl-2-(o-tolyl)phthalazin-1(2H)-one] | 778 | 700 | 
CCn1c(CO)nn(-c2cc3c(C(C)C)nn(-c4c(F)cccc4Cl)c(=O)c3cc2F)c1=O [Example 54, 2-(2-Chloro-6-fluorophenyl)-6-(4-ethyl-3-(hydroxymethyl)-5-oxo-4,5-dihydro-1H-1,2,4-triazol-1-yl)-7-fluoro-4-isopropylphthalazin-1(2H)-one] | 433 | 400 | 
CCn1c(CO)nn(-c2cc3c(C4(C)CC4)cn(-c4c(F)cccc4Cl)c(=O)c3cc2F)c1=O [Example 58, 2-(2-Chloro-6-fluorophenyl)-6-(4-ethyl-3-(hydroxymethyl)-5-oxo-4,5-dihydro-1H-1,2,4-triazol-1-yl)-7-fluoro-4-(1-methylcyclopropyl)isoquinolin-1(2H)-one] | 8810 | 4000 | 
C=C(C)c1cn(-c2c(C)ccnc2OC)c(=O)c2cc(F)c(-n3nc(CO)n(CC)c3=O)cc12 [Example 59, 6-(4-Ethyl-3-(hydroxymethyl)-5-oxo-4,5-dihydro-1H-1,2,4-triazol-1-yl)-7-fluoro-2-(2-methoxy-4-methylpyridin-3-yl)-4-(prop-1-en-2-yl)isoquinolin-1(2H)-one] | 2230 | 5000 | 
C=C(C)c1cn(-c2c(C)n[nH]c2Cl)c(=O)c2cc(F)c(-n3nc(CO)n(CC)c3=O)cc12 [Example 60, 2-(5-Chloro-3-methyl-1H-pyrazol-4-yl)-6-(4-ethyl-3-(hydroxymethyl)-5-oxo-4,5-dihydro-1H-1,2,4-triazol-1-yl)-7-fluoro-4-(prop-1-en-2-yl)isoquinolin-1(2H)-one] | 286 | 4000 | 
CCn1c(CO)nn(-c2cc3c(C(C)C)cn(-c4c(C)cnc(OC)c4Cl)c(=O)c3cc2F)c1=O [Example 61, 2-(3-Chloro-2-methoxy-5-methylpyridin-4-yl)-6-(4-ethyl-3-(hydroxymethyl)-5-oxo-4,5-dihydro-1H-1,2,4-triazol-1-yl)-7-fluoro-4-isopropylisoquinolin-1(2H)-one] | 617 | 2000 | 
C=C(C)c1cn(-c2c(C)cnc(OC)c2Cl)c(=O)c2cc(F)c(-n3nc(CO)n(CC)c3=O)cc12 [Example 62, 2-(3-Chloro-2-methoxy-5-methylpyridin-4-yl)-6-(4-ethyl-3-(hydroxymethyl)-5-oxo-4,5-dihydro-1H-1,2,4-triazol-1-yl)-7-fluoro-4-(prop-1-en-2-yl)isoquinolin-1(2H)-one] | 836 | 2000 | 
CCn1c(CO)nn(-c2cc3c(C(C)C)cn(-c4cc(OC)ccc4F)c(=O)c3cc2F)c1=O [Example 63, 6-(4-Ethyl-3-(hydroxymethyl)-5-oxo-4,5-dihydro-1H-1,2,4-triazol-1-yl)-7-fluoro-2-(2-fluoro-5-methoxyphenyl)-4-isopropylisoquinolin-1(2H)-one] | 2760 | 2000 | 
CCn1c(CO)nn(-c2cc3c(C(C)C)cn(-c4ccc(F)cc4C)c(=O)c3cc2F)c1=O [Example 64, 6-(4-Ethyl-3-(hydroxymethyl)-5-oxo-4,5-dihydro-1H-1,2,4-triazol-1-yl)-7-fluoro-2-(4-fluoro-2-methylphenyl)-4-isopropylisoquinolin-1(2H)-one] | 459 | 500 | 
